This is an account of results in patent US20220110847A1, “USE OF COOLING MATERIALS FOR THE REDUCTION OR INHIBITION OF SALTINESS IN ORALLY ADMINISTERED, IMBIBED OR INGESTED CONSUMER PRODUCTS” (TAKASAGO INTERNATIONAL CORPORATION, priority 2019, published 2022).

This assay is described as follows: Saltiness rating of toothpaste samples by an expert panel. The settings on record: for perceived salty taste compared with both the Control and the other tested cooling materials: cooling material added to commercial toothpaste with approximately 50% sodium bicarbonate, expert panel; for Average RATING (saltiness): saltiness scale of 1 (less salty) to 7 (most salty), 7 evaluators, cooling material at 0.2 % (table) in commercial toothpaste with approximately 50% by weight sodium bicarbonate, Control 6.43. The format is in vivo. The procedure:
A sample of a commercially available toothpaste containing approximately 50% by weight of sodium bicarbonate was used as a Control. […] All of the toothpaste samples, including the Control, were evaluated by an expert panel comprised of 4 Flavorist(s), 2 Flavor Lab Managers, and 1 Flavor Lab Technician. Each sample was assigned a number by each evaluator to indicate saltiness, using a saltiness scale of 1(less salty) to 7(most salty).

In the case of `COc1ccc(NC(=O)C2CC(C)CCC2C(C)C)cc1` (centres unmarked) [N-(4-methoxyphenyl)-p-menthanecarboxamide], the “perceived salty taste compared with both the Control and the other tested cooling materials” value was “less salty taste”; the “Average RATING (saltiness)” value worked out at 5.57.

On to `CNC(=O)C(C)(C(C)C)C(C)C` [2-isopropyl-N,2,3-trimethylbutyramide, reference compound], for which the “Average RATING (saltiness)” value is 6.

In the case of `CCOC(=O)CNC(=O)C1CC(C)CCC1C(C)C` (centres unmarked) [N-[(ethoxycarbonyl)methyl)-p-menthane-3-carboxamide, reference compound], the “Average RATING (saltiness)” value is listed as 6.43.

As for `CC1CCC(C(C)C)C(OCCO)C1` (centres unmarked) [hydroxyethyl-menthyl ether], the “perceived salty taste compared with both the Control and the other tested cooling materials” value is “less salty taste”; the “Average RATING (saltiness)” value worked out at 5.57.

Consider `CC(O)CC(=O)O[C@@H]1C[C@H](C)CC[C@H]1C(C)C` (stereo partly drawn) [L-menthyl-3-hydroxybutanoate], for which the “perceived salty taste compared with both the Control and the other tested cooling materials” value was “less salty taste”; the “Average RATING (saltiness)” value worked out at 3.86.

Take `CC1CCC(C(C)C)C(OC(=O)C(C)O)C1` (centres unmarked) [Menthyl Lactate, reference compound]: the “Average RATING (saltiness)” value amounted to 6.43.

Consider `CC(C)[C@@H]1CC[C@@H](C)C[C@H]1OCC(O)CO` (stereo partly drawn) [3-L-menthoxypropan-1,2-diol], for which the “perceived salty taste compared with both the Control and the other tested cooling materials” value is “less salty taste”; the “Average RATING (saltiness)” value was 3.00.

On to `CCNC(=O)C1CC(C)CCC1C(C)C` (centres unmarked) [N-ethyl-5-methyl-2-propan-2-ylcyclohexane-1-carboxamide, reference compound], for which the “Average RATING (saltiness)” value worked out at 6.57.

As for `CC(=O)C1CCC(C)CC1O` (centres unmarked) [1-(2-hydroxy-4-methylcyclohexyl)-ethanone], the “perceived salty taste compared with both the Control and the other tested cooling materials” value is listed as “less salty taste”; the “Average RATING (saltiness)” value is 2.43.

Turning to `C=C(C)[C@@H]1CC[C@@H](C)C[C@H]1O` [1-isopulegol, reference compound], the “Average RATING (saltiness)” value was determined as 6.29.

For the compound `CC1CCC(C(C)(C)O)C(O)C1` (centres unmarked) [p-menthane-3,8-diol], the “perceived salty taste compared with both the Control and the other tested cooling materials” value was “less salty taste”; the “Average RATING (saltiness)” value was 5.86.
